Assay [1] deals with T1, COX-2 (Homo sapiens, UniProt P35354).
T1 construct: purchased Cayman Chemical 700100
T1 sequence (P35354 18-604): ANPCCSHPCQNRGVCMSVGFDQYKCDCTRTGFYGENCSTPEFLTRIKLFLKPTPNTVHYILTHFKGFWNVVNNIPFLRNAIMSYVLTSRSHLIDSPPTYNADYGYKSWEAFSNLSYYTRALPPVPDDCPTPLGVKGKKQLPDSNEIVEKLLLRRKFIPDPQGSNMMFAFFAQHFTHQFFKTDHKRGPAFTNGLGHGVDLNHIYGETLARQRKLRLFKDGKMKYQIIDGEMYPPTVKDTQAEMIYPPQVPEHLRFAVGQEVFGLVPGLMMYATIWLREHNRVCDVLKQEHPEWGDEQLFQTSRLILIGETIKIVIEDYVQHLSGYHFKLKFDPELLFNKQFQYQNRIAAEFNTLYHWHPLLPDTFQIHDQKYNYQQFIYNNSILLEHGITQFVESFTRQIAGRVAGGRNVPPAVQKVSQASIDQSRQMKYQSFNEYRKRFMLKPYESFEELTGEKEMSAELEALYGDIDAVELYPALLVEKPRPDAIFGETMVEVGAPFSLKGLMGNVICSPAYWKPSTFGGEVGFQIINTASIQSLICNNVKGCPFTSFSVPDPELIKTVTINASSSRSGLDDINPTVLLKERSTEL
The experiment in a line: COX-2 inhibition IC50, COX Fluorescent Inhibitor Screening Assay. In kind it is biochemical. As for the experimental part:
A COX Fluorescent Inhibitor Screening Assay Kit (catalog number 700100, Cayman Chemical, Ann Arbor, Mich.) is useful for assaying the ability of the compounds provided herein to inhibit ovine COX-1 and human recombinant COX-2 (% inhibition at 100 μM and IC50 values (M), respectively). Stock solutions of test compounds are dissolved in a minimum volume of DMSO. 10 μl of various concentrations of the test compound solutions, e.g., [I]final between 0.01 and 100 μM, are added to a series of supplied reaction buffer solutions (150 μl, 100 mM Tris-HCl, pH 8.0) with either COX-1 or COX-2 (10 μl) enzyme in the presence of Heme (10 μl) and a fluorometric substrate (10 μl). The reactions are initiated by quickly adding 10 μl of arachidonic acid solution and then incubating the system for two minutes at room temperature. Fluorescence of resorufin, which is produced by the reaction between PGG2 and fluorometric substrate, ADHP (10-acetyl-3,7-dihydroxyphenoxazine), is analyzed with an excitation wavelength of 535 nm and an emission wavelength of 590 nm. The intensity of this fluorescence is proportional to the amount of resorufin, which is proportional to the amount of PGG2 present in the well during the incubation. Percent inhibition is calculated by comparison from the 100% initial activity sample value (no inhibitor).

Assay [2] has as its system C57B/L6 mice exposed to bleomycin. The experiment in a line: Example 1: prophylactic treatment of mice exposed to bleomycin (IPF model). In kind it is in vivo, mouse. An excerpt:
4-(5-phenyl-3-{3-[3-(4-trifluoromethyl-phenyl)-ureido]-propyl}-pyrazol-1-yl)-benzenesulfonamide (PTUPB) [termed OX1] was compared to Pirfenidone, Nintedanib, and GSK225629415 [termed OX3] for treatment of IPF using an established model for IPF treating, which is prophylactic treatment of mice exposed to the chemotherapeutic agent bleomycin. […] Pirfenidone and Nintedanib are standard of care for the treatment of idiopathic pulmonary fibrosis and served as reference compounds in the experiment.
C57B/L6 mice were used in the experiments. When used, Bleomycin was administered intra-oropharyngeally, 1.5 U/kg, QD per established protocol. The test articles were dosed via oral gavage in 200 μL/day vehicle. The doses and formulations of test articles were selected based on the literature describing the lowest doses capable of eliciting pharmacological action.
Animals were dosed with the test articles (or vehicle) starting at day −1 to day 20. On day 1, daily doses of Bleomycin commenced in all but group 1 (negative control) which received the vehicle. On day 21, all animals were weighed and sacrificed. After lungs and bronco-alveolar lavage fluid (BALF) were harvested, they were prepared according to standard procedures for further analysis and histology. All animals were assessed twice a week for body weight and overall appearance. Efficacy endpoints measured in this study included lung weight, total leukocytes, and histology as determined by Mason's Trichrome stain and scored using a modified Ashcroft score.
The following parameters were measured in bronchoalveolar fluid (BALF): 1) soluble collagen and 2) differential leukocyte counts for different leukocyte populations.
After weighing and removal of BALF from the lungs, they were inflated and fixed using 10% neutral buffered formalin for histopathology analysis. Fifty-four formalin-fixed lung samples from mice were submitted to HistoTox Labs and were processed routinely. Two slides from each block were sectioned and stained with hematoxylin and eosin (H&E) or Masson's trichrome. Glass slides were evaluated with light microscopy by a board-certified veterinary pathologist. Lung sections were scored according to the modified Ashcroft scale.

Setting [3] is: day 21, OX1, OX3, Nintedanib 30 mg/kg QD, Pirfenidone 100 mg/kg BID, oral.
Where [4] appears, read: day 21, compared to vehicle (Group 2), OX1, OX3, Nintedanib 30 mg/kg QD, Pirfenidone 100 mg/kg BID.

Data on one compound can be found in patent US20220218667A1, “DUAL INHIBITORS OF SOLUBLE EPOXIDE HYDROLASE AND METHODS OF USE THEREOF” (OROX Biosciences, Inc., priority 2019, published 2022).

“And” between values parts separate entries of the source, which are not always exact repeats. Equal values may be shown once. “Also recorded” adds a separate entry of the source.

Consider `NS(=O)(=O)c1ccc(-n2nc(CCCNC(=O)Nc3ccc(C(F)(F)F)cc3)cc2-c2ccccc2)cc1` [OX1, 4-(5-phenyl-3-{3-[3-(4-trifluoromethyl-phenyl)-ureido]-propyl}-pyrazol-1-yl)-benzenesulfonamide], for which the IC50 in assay [1] came out at 100 nM. Further, in assay [2] (bleomycin mice, OX1 30 mg/kg QD oral gavage day -1 to 20, day 21 vs day -1, 30 mg/kg), the “body weight change at end of experiment compared to starting point” value is −1% and ~1%. For the same compound, the “body weight course over 21 days” value in assay [2] (bleomycin mice, oral gavage day -1 to 20, OX1, OX3, Nintedanib 30 mg/kg QD, Pirfenidone 100 mg/kg BID) is on record as “lost the least weight”. The “lung weight (indicator of fluid accumulation and inflammation)” value in assay [2] (day 21, OX1 30 mg/kg QD oral) is “performed best in reducing bronchoalveolar fluid (BALF) accumulation and inflammation”. Further, the “soluble collagen in BALF” value in assay [2] (day 21, OX1 30 mg/kg QD oral, 30 mg/kg) is “most effective in controlling the overall collagen production; also recorded: most effective test article in lowering production of soluble collagen”. Moreover, in assay [2] (setting [3]), the “neutrophil migration into BALF” value is “effective”, the “number of lymphocytes in BALF” value is on record as “most effective at maintaining a large number of lymphocytes” and the “total cell (leukocyte) count in BALF” value is “did not demonstrate the same level of reduction”. In assay [2] (setting [4]), the “increased collagen (fibrosis) score, trichrome” value is reported as “lowest tissue deposition of collagen; also recorded: markedly reduced”; the “mean Ashcroft score (lung histology)” value is on record as “markedly reduced”; the “mean score for mixed peribronchiolar/perivascular inflammation” value is “lower”.
